Laboratory results published in patent publication US12109266B2, “Modulating gabarap to modulate immunogenic cell death” (Dana-Farber Cancer Institute, Inc., priority 2020, dated 2024).
Entries after “also recorded” stand apart in the source; their conditions may differ.

How the values were obtained:
[1] = tested on: type-I IFN response in AMO1 and NCI-H929 MM cells; test: Type-I IFN response in MM cells (RNA-seq, qRT-PCR, ELISA); assay type: cell-based, human; settings: BTZ 5 nM
Procedure: Total RNA from multiple myeloma cells was prepared with TRIzol™ (ThermoFisher Scientific) and RNA Clean and Concentrator™-5 kit (Zymo Research) following the product instructions. RNA integrity and quantity was assessed by NanoDrop Spectrophotometer (ThermoFisher Scientific). For analysis of mRNA expression, oligo-dT-primed cDNA was obtained using the High Capacity cDNA Reverse Transcription Kit (ThermoFisher Scientific), and used as template to quantify: human and murine IFNA1 (Hs03044218_g1, Mm03030145_gH), human and murine IFNB1 (Hs01077958_s1, Mm00439552_s1), human and murine CXCL9 (Hs00171065_ml, Mm00434946_ml), and human and murine GAPDH (Hs02786624_g1, Mm99999915_g1). Analysis was determined by RT-PCR using TaqMan®Fast Universal PCR Master Mix on a 7500 Fast Real-Time PCR System (ThermoFisher Scientific). Comparative RT-PCR was performed in triplicate. Relative expression was calculated using the comparative […] (Ct) method.
AMO1^WT and STING^KO cells were either untreated or treated with BTZ for 24 h. Supernatant was collected, and secretion of CXCL9 chemokines was analyzed by MIG (CXCL9) Human Instant ELISA™ Kit (#BMS285INST, ThermoFisher Scientific).
AMO1 WT and STING^KO were cultured for 16 h in the presence of absence of BTZ (5 nM). RNA was extracted as previously described and submitted to NovaSeq RNAseq analysis followed by VIPER NGS Analysis pipeline (Cornwell et al. (2018) BMC Bioinformatics; 19(1):135). Lists of DEGs were applied to the GSEA software. RNAseq data have been submitted to Gene Expression Omnibus (accession number: GSE171837).

[2] = tested on: AMO1, H929 and KMS11 MM cells; test: Cell surface exposure of CALR (flow cytometry); assay type: cell-based, human
Procedure: (§1) Multiple myeloma (MM) cells were seeded in 12-well plates (2×10^5 per well), treated with BTZ for 16 h at indicated concentrations, and then stained with Alexa Fluor647® anti-calreticulin antibody (ab196159, Abcam) and 7-AAD. Analysis of fluorescence intensity on 7-AAD negative cells was assessed using BD LRSFortessa™ X-20 flow cytometer.
as §1, with “MM” for “Multiple myeloma (MM)”, “cells” for “cells was assessed”, “LRSFortessa” for “LRSFortessa™”

human DCs = test: DCs maturation assay; assay type: cell-based
Procedure: Immature DCs were generated as described above (“Generation of Mo-DCs” section). DCs were cultured alone or with untreated or BTZ pretreated-AMO1 (5 nM) for 24 h. DCs alone were cultured i) without maturation stimuli; ii) with 50 ng/ml of TNFalpha (Millipore Sigma); or iii) with 5 nM of BTZ. After 24 h, cells were harvested and analyzed by flow cytometry using the following Abs: anti-CD83-APC (#551073), CD86-FITC (#555657) and 7-AAD from BD Biosciences and CD11c-BV650 (#563404, Biolegend). Dead cells were excluded by 7-AAD positivity, and CD83 and CD86 expression was evaluated on CD11c+ cells.

[3] = tested on: patient-derived MM cells (pdMM); test: Phagocytosis assay of patient-derived MM cells by DCs; assay type: cell-based, human; settings: BTZ 5 and 10 nM; 4 h co-culture
Excerpt: Multiple myeloma patients BM aspirates and normal donor peripheral blood mononuclear cells (PBMCs) were obtained after written informed consent, in accordance with the declaration of Helsinki and under the approval by the Institutional Review Board of the Dana-Farber Cancer Institute. BMMCs and PBMCs were separated by Ficoll-Paque PLUS (GE Healthcare). Multiple myeloma cells from BMMCs were enriched by CD138-positive selection using magnetic microbeads (Miltenyi Biotec).
Mo-DCs were generated from CD14+ peripheral blood monocytes from healthy donors, positively selected using magnetic beads (Miltenyi Biotec), cultured for 6 days in mo-DC differentiation medium containing GM-CSF and IL-4 (130-094-812; Miltenyi Biotec). AMO1 and NCI-H929 cells lines, as well as patient MM cells, were stained with CellTrace™ Far Red (ThermoFisher Scientific), cultured with or without BTZ for 16 h, and then incubated in 48-well plates for 4 h at 1:1 ratio with CellTrace™ CFSE stained Mo-DCs. Cells were then collected, and phagocytosis analysis was performed by flow cytometry and confocal microscopy. Analagous phagocytosis experiments were performed using 5TGM1 murine multiple myeloma and JAWSII cell line that was used as source of immature murine DCs.
(§2) Flow cytometry-based assay: Collected cells were analyzed using the BD LRSFortessa X-20 flow cytometer. […]

5TGM1 MM cells = test: Phagocytosis assay of MM cells by JAWSII DCs; assay type: cell-based, murine
Procedure: Mo-DCs were generated from CD14+ peripheral blood monocytes were positively selected using magnetic beads (Miltenyi Biotec) and cultured for 6 days in mo-DC differentiation medium containing GM-CSF and IL-4 (130-094-812; Miltenyi Biotec) to generate Mo-DCs. AMO1, KMS11 and H929 cells lines, as well as patient MM cells, were stained with CellTrace™ Far Red (ThermoFisher Scientific), cultured with or without BTZ (for 16 h), and then incubated in 48-well plates for 4 h at 1:1 ratio with CellTrace™ CFSE stained Mo-DCs. Cells were then collected, and phagocytosis analysis was performed by flow cytometry and confocal microscopy. Analagous phagocytosis experiments was performed using 5TGM1 murine MM and immature murine DC line JAWSII.
Collected cells were analyzed using the BD LRSFortessa™ X-20 flow cytometer. Mo-DCs that engulfed MM cells were CFSE and FAR-RED double positive. Fold increase in percentage of double positive DCs after co-culture with BTZ treated vs untreated MM cells was compared. […]
as §2
Confocal microscopy-based assay: 5TGM1 cells (15000) were cytospun for 7 min at 300 rpm, fixed in 4% paraformaldehyde for 20 min at RT, and washed three times with 1% FBS in PBS. […] Slides were examined using Yokogawa Spinning Disk Confocal/TIRF System, and analyzed with ImageJ software.

Compound: CC(C)C[C@H](NC(=O)[C@H](Cc1ccccc1)NC(=O)c1cnccn1)B(O)O [BTZ, bortezomib]
- type-I IFN response gene sets (RNA-seq) ([1]; AMO1, 16 h): positive enrichment of gene sets included in the type-I IFN response hallmark signature; also recorded: MM cells engage in a type I IFN response after treatment with BTZ
- CXCL9 transcript and secreted CXCL9 (ELISA) ([1]; AMO1 STING^KO): neither CXCL9 transcript or its secreted form were detected
- type-I IFN response (RNA-seq; IFNA1, IFNB1 qRT-PCR) ([1]; AMO1 STING^KO): did not activate transcription of genes in the IFNs response or increase the levels of IFNA1 and IFNB1 transcripts; also recorded: STING dependent
- IFNA1, IFNB1 and CXCL9 transcripts (qRT-PCR) ([1]; AMO1 and NCI-H929, 16 h): increased IFNA1, IFNB1 and CXCL9 transcripts
- CALR exposure on cell surface ([2]; AMO1, H929 WT, BTZ 1-10 nM, 16 h, viable (7-AAD negative) cells): triggers calreticulin (CALR; also referred to as CRT) exposure by cancer cells; also recorded: can induce hallmarks of ICD in human and murine MM cell lines; also recorded: dose-dependent increase of CTLR exposure
- CALR exposure on cell surface ([2]; AMO1 STING^KO, BTZ 5 nM, 16 h): did not alter CALR exposure process
- CALR exposure on cell surface ([2]; AMO1 and H929 GABARAP^KO clones): did not increase CRT exposure; also recorded: GABARAP^KO blocks CALR exposure upon BTZ
- CALR exposure on cell surface ([2]; AMO1 and H929 GABARAP^KO clones, listed as Bortezomib): did not induce CALR exposure in MM cells due to GABARAP deletion
- CALR exposure on cell surface ([2]; KMS11 cells (monoallelic deletion of GABARAP)): did not lead to an increase of CRT exposure
- expression of CD83 and CD86 maturation markers on DCs (human DCs; 24 h co-culture with BTZ (5 nM) pretreated AMO1): higher expression of CD86/CD83 on cell surface; also recorded: increased expression of CD83 and CD86 maturation markers
- expression of CD83 and CD86 maturation markers on DCs (human DCs; DCs with BTZ alone (5 nM), no MM cells): not triggered by either untreated multiple myeloma cells or BTZ alone
- phagocytosis of BTZ-treated pdMM cells by DCs [3]: dose-dependent increase in phagocytosis of BTZ-treated pdMM cells by DCs
- phagocytosis of BTZ-treated MM cells by DCs (5TGM1 MM cells; 5TGM1 Calr^KO cells): calreticulin is necessary for induction of ICD by BTZ; also recorded: abrogated in vitro when DCs were co-cultured with CRT^KOMM cells; also recorded: inhibited
- phagocytosis of BTZ-treated MM cells by DCs (5TGM1 MM cells; 5TGM1 WT, BTZ 16 h, then 4 h co-culture with mDCs): engulfed by monocyte-derived DCs after 4 h of co-culture
